Test [1] concerns Candida albicans. Briefly: Activity of compounds (I) against vaginal candidosis in rats. The following applies: 336 h, oral once a day for two days from day of infection, active at the 14th day after infection. The test is classed as in vivo, Female Wistar rats. As for the experimental part: Experiment A: Activity of compounds (I) against vaginal candidosis in rats Female Wistar rats of ± 100 g body weight were used. They were ovariectomized and hysterectomized and after three weeks of recovery, 100 μg of oestradiol undecylate in sesame oil was given subcutaneously once a week for 3 consecutive weeks. The thus induced pseudooestrus was controlled by microscopic examination of vaginal smears. Food and water were left available ad libitum. The rats were infected intravaginally with 8.10^5 cells of Candida albicans, grown on Sabouraud broth for 48 hours at 37° C. and diluted with saline. The date of infection varied from day +25 to day +32 after surgical intervention, depending on the appearance of signs of induced pseudo-oestrus. The drugs under investigation were administered orally once a day for two days starting from the day of infection. For each experiment there were placebo treated controls. The results were assessed by taking vaginal smears with sterile swabs on several days after the infection. The swabs were put into Sabouraud broth in petri-dishes and incubated for 48 hours at 37° C. If no growth of Candida albicans occured, i.e., when the animals were negative at the end of the experiment, this was due to drug administration because it never happened in placebo treated controls. The tables I and II below give the lowest oral dose of the drug under investigation which was found active at the 14th day after infection.

The test system of test [2] is Candida albicans. The test can be described thus: Activity of compounds (I) against crop candidosis in turkeys. Format: in vivo. The settings on record: medicated feed for 13 consecutive days from day of infection, crops of 50% of animals completely negative for Candida albicans; for Crop candidosis in Turkeys: ED50 in mg/kg of feed.: Table I. As for the experimental part:
Experiment B: Activity of compounds (I) against crop candidosis in turkeys Turkeys of 14 days old were infected in the crop with 4·10^6 Candida albicans cells, grown on Sabouraud broth for 48 hours at 37° C. and diluted with saline. The volume of the inoculum was 1 ml. The drug under investigation were premixed in 500 mg of lacton and thereafter admixed in 1000 g of meal without any additives. The concentration of the drug under investigation in the meal was expressed in mg/kg. The animals were given the medicated feed for 13 consecutive days starting on the day of infection. At the end of the experiment all animals were sacrificed. At autopsy the crops were removed, emptied and grinded in an ultra-turrax mixer in 15 ml of sterile saline. Colony counting was done on Sabouraud agar and the results given in Tables I and Ii represent the ED50, i.e., the dose of the drug whereby the crops of 50% of the animals were completely negative for Candida albicans.

[3] abbreviates: Table II, read-out: Vagingal candidosis in rats: lowest effective dose.
[4] abbreviates: Table I, read-out: Vaginal candidosis in rats: lowest effective dose.

Molecules are shown by their SMILES. Like-named read-outs stand apart in the source and are kept apart here. A value given as a limit tells only on which side of the number the result lay.

As for `Clc1ccc(C2(Cn3ccnc3)OCC(COc3cccc(-n4ccnc4)c3)O2)c(Cl)c1` (stereo not drawn), the minimal effective dose in test [1] (setting [3]) stood at 2.5 mg/kg.
Take `Clc1ccc(C2(Cn3cncn3)OCC(COc3ccc(-n4ccnc4)cc3)O2)c(Cl)c1` (stereo not drawn): in test [2] (Table II), the “Crop candidosis in Turkeys: ED50 in mg/kg in feed” value amounted to 8 mg/kg in feed. The minimal effective dose in test [1] (setting [3]) came to 1.25 mg/kg.
On to `Clc1ccc([C@@]2(Cn3ccnc3)OC[C@H](COc3ccc(-n4ccnc4)cc3)O2)c(Cl)c1` (relative stereo), for which the “Crop candidosis in Turkeys: ED50 in mg/kg of feed.” value (from here on “Crop candidosis … of feed.”) in test [2] is 8 mg/kg of feed. Moreover, the minimal effective dose in test [1] (setting [4]) was 1.25 mg/kg.
On the same counts, the results for `Clc1ccc([C@@]2(Cn3ccnc3)OC[C@H](COc3ccc(-n4cncn4)cc3)O2)c(Cl)c1` (relative stereo) are 16 mg/kg of feed and 1.25 mg/kg.
As for `Clc1ccc([C@@]2(Cn3ccnc3)OC[C@H](COc3ccc(-n4cccc4)cc3)O2)c(Cl)c1` (relative stereo), the “Crop candidosis … of feed.” value in test [2] was 125 mg/kg of feed. The minimal effective dose in test [1] (setting [4]) amounted to 2.5 mg/kg.
The matching figures for `Clc1ccc([C@@]2(Cn3ccnc3)OC[C@H](COc3ccc(-n4cccn4)cc3)O2)c(Cl)c1` (relative stereo): 16 mg/kg of feed and 2.5 mg/kg.
On the same counts, the results for `Cc1nccn1-c1ccc(OC[C@H]2CO[C@](Cn3ccnc3)(c3ccc(Cl)cc3Cl)O2)cc1` (relative stereo) are 125 mg/kg of feed and 10 mg/kg.
For `Clc1ccc([C@@]2(Cn3ccnc3)OC[C@H](COc3ccc(-n4ccnc4-c4ccccc4)cc3)O2)c(Cl)c1` (relative stereo), the “Crop candidosis … of feed.” value in test [2] is on record as 125 mg/kg of feed. Moreover, the minimal effective dose in test [1] (setting [4]) was 5 mg/kg.
`Cc1n[nH]c(=O)n1-c1ccc(OC[C@H]2CO[C@](Cn3ccnc3)(c3ccc(Cl)cc3Cl)O2)cc1` (relative stereo): the minimal effective dose in test [1] (setting [4]) was less than 10 mg/kg.
The same measure, in the same setting: with `CCCn1ncn(-c2ccc(OC[C@H]3CO[C@](Cn4ccnc4)(c4ccc(Cl)cc4Cl)O3)cc2)c1=O` (relative stereo) the figure was less than 10 mg/kg.
The same measure, in the same setting: with `CC(C)n1ncn(-c2ccc(OC[C@H]3CO[C@](Cn4ccnc4)(c4ccc(Cl)cc4Cl)O3)cc2)c1=O` (relative stereo) the figure was less than 10 mg/kg; with `Cc1nn(C)c(=O)n1-c1ccc(OC[C@H]2CO[C@](Cn3ccnc3)(c3ccc(Cl)cc3Cl)O2)cc1` (relative stereo), 1.25 mg/kg; with `Cc1nn(C(C)C)c(=O)n1-c1ccc(OC[C@H]2CO[C@](Cn3ccnc3)(c3ccc(Cl)cc3Cl)O2)cc1` (relative stereo), 5 mg/kg.
Take `CCn1ncn(-c2ccc(OC[C@H]3CO[C@](Cn4ccnc4)(c4ccc(Cl)cc4Cl)O3)cc2)c1=O` (relative stereo): the “Crop candidosis … of feed.” value in test [2] is recorded as 31 mg/kg of feed. Besides, in test [1] (setting [4]), the minimal effective dose was determined as 5 mg/kg.
On to `CCn1nc(C)n(-c2ccc(OC[C@H]3CO[C@](Cn4ccnc4)(c4ccc(Cl)cc4Cl)O3)cc2)c1=O` (relative stereo), for which, in test [1] (setting [4]), the minimal effective dose was 2.5 mg/kg.
Same read-out and setting: the figure for `Sc1nnnn1-c1ccc(OC[C@H]2CO[C@](Cn3ccnc3)(c3ccc(Cl)cc3Cl)O2)cc1` (relative stereo) is 2.5 mg/kg.
`CSc1nncn1-c1ccc(OC[C@H]2CO[C@](Cn3ccnc3)(c3ccc(Cl)cc3Cl)O2)cc1` (relative stereo): in test [2], the “Crop candidosis … of feed.” value is listed as 8 mg/kg of feed. For the same compound, the minimal effective dose in test [1] (setting [4]) turned out to be 10 mg/kg.
In the case of `CCSc1nccn1-c1ccc(OC[C@H]2CO[C@](Cn3ccnc3)(c3ccc(Cl)cc3Cl)O2)cc1` (relative stereo), the minimal effective dose in test [1] (setting [4]) was determined as 5 mg/kg.
Turning to `CSc1nccn1-c1ccc(OC[C@H]2CO[C@](Cn3ccnc3)(c3ccc(Cl)cc3Cl)O2)cc1` (relative stereo), the “Crop candidosis … of feed.” value in test [2] is 31 mg/kg of feed. For the same compound, in test [1] (setting [4]), the minimal effective dose was determined as 5 mg/kg.
The matching figures for `CCCSc1nccn1-c1ccc(OC[C@H]2CO[C@](Cn3ccnc3)(c3ccc(Cl)cc3Cl)O2)cc1` (relative stereo): 31 mg/kg of feed and 5 mg/kg.
As to `CC(C)Sc1nccn1-c1ccc(OC[C@H]2CO[C@](Cn3ccnc3)(c3ccc(Cl)cc3Cl)O2)cc1` (relative stereo), the “Crop candidosis … of feed.” value in test [2] is listed as 31 mg/kg of feed.
On the same count and under the same terms, the figure for `CSc1ncc(C)n1-c1ccc(OC[C@H]2CO[C@](Cn3ccnc3)(c3ccc(Cl)cc3Cl)O2)cc1` (relative stereo) is 31 mg/kg of feed.
Turning to `CSc1ncn(-c2ccc(OC[C@H]3CO[C@](Cn4ccnc4)(c4ccc(Cl)cc4Cl)O3)cc2)n1` (relative stereo), in test [2], the “Crop candidosis … of feed.” value was 16 mg/kg of feed. The minimal effective dose in test [1] (setting [4]) is 1.25 mg/kg.
For `Clc1ccc([C@@]2(Cn3ccnc3)OC[C@H](COc3ccc(-n4ncnc4-c4ccccc4)cc3)O2)c(Cl)c1` (relative stereo), the minimal effective dose in test [1] (setting [4]) stood at 10 mg/kg.
With `CSc1nc(C)n(-c2ccc(OC[C@H]3CO[C@](Cn4ccnc4)(c4ccc(Cl)cc4Cl)O3)cc2)n1` (relative stereo), in test [1] (setting [4]), the minimal effective dose was determined as 2.5 mg/kg.
Same read-out and setting: the figure for `Cc1ccn(-c2ccc(OC[C@H]3CO[C@](Cn4ccnc4)(c4ccc(Cl)cc4Cl)O3)cc2)n1` (relative stereo) is 2.5 mg/kg.
Still for that read-out and setting: with `CSc1nnc(C)n1-c1ccc(OC[C@H]2CO[C@](Cn3ccnc3)(c3ccc(Cl)cc3Cl)O2)cc1` (relative stereo) the figure was 2.5 mg/kg.
Consider `Cc1ncnn1-c1ccc(OC[C@H]2CO[C@](Cn3ccnc3)(c3ccc(Cl)cc3Cl)O2)cc1` (relative stereo), for which, in test [2], the “Crop candidosis … of feed.” value is 8 mg/kg of feed. Also, the minimal effective dose in test [1] (setting [4]) was 1.25 mg/kg.
Regarding `CS(=O)(=O)c1nccn1-c1ccc(OC[C@H]2CO[C@](Cn3ccnc3)(c3ccc(Cl)cc3Cl)O2)cc1` (relative stereo), the minimal effective dose in test [1] (setting [4]) was found to be 5 mg/kg.
`CCOc1nncn1-c1ccc(OC[C@H]2CO[C@](Cn3ccnc3)(c3ccc(Cl)cc3Cl)O2)cc1` (relative stereo): in test [2], the “Crop candidosis … of feed.” value was 31 mg/kg of feed. Also, the minimal effective dose in test [1] (setting [4]) was 2.5 mg/kg.
On the same counts, the results for `CCc1ncnn1-c1ccc(OC[C@H]2CO[C@](Cn3ccnc3)(c3ccc(Cl)cc3Cl)O2)cc1` (relative stereo) are 8 mg/kg of feed and 5 mg/kg.
Consider `C[S+]([O-])c1nncn1-c1ccc(OC[C@H]2CO[C@](Cn3ccnc3)(c3ccc(Cl)cc3Cl)O2)cc1` (relative stereo), for which, in test [1] (setting [4]), the minimal effective dose amounted to 2.5 mg/kg.
For the compound `Cc1nnc([S+](C)[O-])n1-c1ccc(OC[C@H]2CO[C@](Cn3ccnc3)(c3ccc(Cl)cc3Cl)O2)cc1` (relative stereo), in test [2], the “Crop candidosis … of feed.” value was 16 mg/kg of feed. For the same compound, the minimal effective dose in test [1] (setting [4]) worked out at 10 mg/kg.
`Clc1ccc([C@@]2(Cn3ccnc3)OC[C@H](COc3ccc(-n4cnnn4)cc3)O2)c(Cl)c1` (relative stereo): the “Crop candidosis … of feed.” value in test [2] was 31 mg/kg of feed.
`COc1ccc([C@@]2(Cn3ccnc3)OC[C@H](COc3ccc(-n4ccnc4)cc3)O2)cc1` (relative stereo): the minimal effective dose in test [1] (setting [3]) was determined as 5 mg/kg.

These data come from patent US4160841A, “Heterocyclic derivatives of 1-(1,3-dioxolan-2-ylmethyl)-1H-imidazoles” (Janssen Pharmaceutica, N.V., priority 1977, dated 1979).
